These results are taken from patent US10752584B2 (EMORY UNIVERSITY, priority 2016, dated 2020).

SMILES strings stand for the structures. Entries after “also recorded” stand apart in the source; their conditions may differ. Read-outs that look alike come from different tables or passages of the source. Bounds are passed on as bounds.

The test system of series [1] is mitochondrial DNA (COXII gene) in HepG2 cells. Description: Mitochondrial toxicity assay in HepG2 cells: mitochondrial DNA. The series is classed as cell-based. Conditions: for IC50: read-out: IC50 MtDNA. The source says:
(§1) A real-time PCR assay to accurately quantify mitochondrial DNA content has been developed (see Stuyver L J, Lostia S, Adams M, Mathew J S, Pai B S, Grier J, Tharnish P M, Choi Y, Chong Y, Choo H, Chu C K, Otto M J, Schinazi R F. Antiviral activities and cellular toxicities of modified 2′,3′-dideoxy-2′,3′-didehydrocytidine analogs. Antimicrob. Agents Chemother. 2002; 46: 3854-60). This assay was used in all studies described in this application that determine the effect of compounds on mitochondrial DNA content. In this assay, low-passage-number HepG2 cells were seeded at 5,000 cells/well in collagen-coated 96-well plates. Test compounds were added to the medium to obtain final concentrations of 0 μM, 0.1 μM, 10 μM and 100 μM. On culture day 7, cellular nucleic acids were prepared by using commercially available columns (RNeasy 96 kit; Qiagen). […] The mitochondrial cytochrome c oxidase subunit II (COXII) gene and the β-actin or rRNA gene were amplified from 5 μl of the eluted nucleic acids using a multiplex Q-PCR protocol with suitable primers and probes for both target and reference amplifications. For COXII the following sense, probe and antisense primers were used, respectively: 5′-TGCCCGCCATCATCCTA-3′, 5′-tetrachloro-6-carboxyfluorescein-[…]-TAMRA-3′ and 5′-[…]-3′. For exon 3 of the β-actin gene (GenBank accession number E01094) the sense, probe, and antisense primers are 5′-GCGCGGCTACAGCTTCA-3′, 5′-6-[…]-3′ and 5′-[…]-3′, respectively. The primers and probes for the rRNA gene are commercially available from Applied Biosystems. Since equal amplification efficiencies are obtained for all genes, the comparative CT method was used to investigate potential inhibition of mitochondrial DNA synthesis. The comparative CT method uses arithmetic formulas in which the amount of target (COXII gene) is normalized to the amount of an endogenous reference (the β-actin or rRNA gene) and is relative to a calibrator (a control with no drug at day 7). The arithmetic formula for this approach is given by 2−ΔΔCT, where ΔΔCT is (CT for average target test sample CT for target control)−(CT for average reference test−CT for reference control) (see Johnson M R, K Wang, J B Smith, M J Heslin, R B Diasio. Quantitation of dihydropyrimidine dehydrogenase expression by real-time reverse transcription polymerase chain reaction. Anal. Biochem. 2000; 278:175-184). A decrease in mitochondrial DNA content in cells grown in the presence of drug indicated mitochondrial toxicity.
(§2) The effect of compounds 7 and 9 on the levels of mitochondrial and nuclear DNA, and lactic acid production was evaluated in HepG2 cells (14-day assay), and the data is tabulated below in Table 2: […]

In series [2] the test system is nuclear DNA in HepG2 cells. Briefly: Mitochondrial toxicity assay in HepG2 cells: nuclear DNA. The series is classed as cell-based.
Source text: as §1, §2

Another series has as its system HepG2 cells. Description: Lactic acid production in HepG2 cells. Format: cell-based. Conditions: 14-day assay, 10 μM. The protocol:
To measure the effects of the compounds on lactic acid production, HepG2 cells from a stock culture were diluted and plated in 12-well culture plates at 2.5×10^4 cells per well. Various concentrations (0 μM, 0.1 μM, 1 μM, 10 μM and 100 μM) of compound were added, and the cultures were incubated at 37° C. in a humidified 5% CO2 atmosphere for 4 days. At day 4, the number of cells in each well was determined and the culture medium collected. The culture medium was then filtered, and the lactic acid content in the medium was determined using a colorimetric lactic acid assay (Sigma-Aldrich). Since lactic acid product can be considered a marker for impaired mitochondrial function, elevated levels of lactic acid production detected in cells grown in the presence of test compounds would indicate a drug-induced cytotoxic effect.
as §2

The next series has as its system wild type HBV. Briefly: Anti-HBV assay in AD-38 cell line. Format: cell-based. Conditions: Hepatitis B virus; for EC50: read-out: Anti-HBV activity EC50; for EC90: read-out: Anti-HBV activity EC90. How it is done: The anti-HBV activity of the compounds was determined by treating the AD-38 cell line carrying wild type HBV under the control of tetracycline (see Ladner S. K., Otto M. J., Barker C. S., Zaifert K., Wang G. H., Guo J. T., Seeger C. & King R. W. Antimicrob. Agents Chemother. 1997, 41, 1715-20). Removal of tetracycline from the medium [Tet (−)] results in the production of HBV. The levels of HBV in the culture supernatant fluids from cells treated with the compounds were compared with that of the untreated controls. Control cultures with tetracycline [Tet (+)] were also maintained to determine the basal levels of HBV expression. 3TC was included as positive control.
The median effective concentrations (EC50) ranges of several of the compounds described herein against HBV are shown in Table 3: […]

In another series the target is T1, HBV Cp149 (Hepatitis B virus genotype D subtype adw, UniProt P03147).
T1 construct: hepatitis B virus core C-terminally truncated protein (HBV Cp149); made in house
T1 sequence (P03147 1-149): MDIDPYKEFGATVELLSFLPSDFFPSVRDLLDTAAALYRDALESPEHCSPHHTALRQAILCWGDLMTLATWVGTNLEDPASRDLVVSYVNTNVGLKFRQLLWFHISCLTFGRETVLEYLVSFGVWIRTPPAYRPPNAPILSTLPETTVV
Briefly: Capsid formation assay, electron micrographs. Conditions: 25 μM compound. The series is classed as biochemical. How it is done:
In the absence of compounds which disrupt capsid formation, hepatitis B virus core C-terminally truncated protein (HBV Cp149, protein isolated by reported methods [Zlotnick, A et al; Biochem 1996, 35, 7412-7421] normally assembles into an HBV Cp149 capsid. The purpose of this example was to determine whether putative active agents would disrupt capsid formation, and thus be active as anti-HBV agents. Putative active agents were incubated at a concentration of 25 μM for 1 h at 4° C. with HBV Cp149 at a concentration of 10 μM. Capsid assembly was then promoted by adding 300 mM NaCl, and storing the mixture overnight at 4°. Negative-stain electron micrographs were collected using a JEOL JEM-1400 120 kV electron microscope using uranyl acetate as a contrast agent.

In another series the target is T2, HBV Cp149 capsids (Hepatitis B virus genotype D subtype adw, UniProt P03147).
T2 construct: hepatitis B virus core C-terminally truncated protein (HBV Cp149); made in house
T2 sequence (P03147 1-149): as above
Description: Disruption of already-formed capsids, electron micrographs. Conditions: 25 μM compound, overnight at 4°, FIG. 2-4. Format: biochemical. The protocol: The next question was whether these compounds could disrupt already-formed capsids. Accordingly, the capsids were formed as discussed above (incubation of isolated HBV Cp149 with 300 mM NaCl, stored overnight at 4°). Then, the capsids were incubated with the putative compound (overnight at 4°), and electron micrographs were then taken.

A short description of series [3]: Cellular toxicity assay in human PBM cells. Format: cell-based. Conditions: human, read-out: Cytotoxicity. How it is done: (§3) The toxicity of the compounds was assessed in Vero, human PBM, CEM (human lymphoblastoid), MT-2, and HepG2 cells, as described previously (see Schinazi R. F., Sommadossi J.-P., Saalmann V., Cannon D. L., Xie M.-Y., Hart G. C., Smith G. A. & Hahn E. F. Antimicrob. Agents Chemother. 1990, 34, 1061-67). Cycloheximide was included as positive cytotoxic control, and untreated cells exposed to solvent were included as negative controls. The cytotoxicity IC50 was obtained from the concentration-response curve using the median effective method described previously (see Chou T.-C. & Talalay P. Adv. Enzyme Regul. 1984, 22, 27-55; Belen'kii M. S. & Schinazi R. F. Antiviral Res. 1994, 25, 1-11).

Series [4] can be described thus: Cellular toxicity assay in CEM cells. Conditions: human, read-out: Cytotoxicity. Format: cell-based. How it is done:
as §3

Series [5] can be described thus: Cellular toxicity assay in Vero cells. The series is classed as cell-based. Conditions: African green monkey, read-out: Cytotoxicity. The protocol:
as §3

Series [6] in a line: Cellular toxicity assay in HepG2 cells. The series is classed as cell-based. Conditions: human, read-out: Cytotoxicity. How it is done: as §3
[7] abbreviates: HepG2 cells, 14-day assay, 10 μM.
Setting [8] is: AD-38 cells, HBV in culture supernatant.

Take `Nc1ccn([C@@H]2CS[C@H](CO)O2)c(=O)n1` [Compound 3TC, lamivudine, reference compound]: in series [1] (setting [7]), the “MtDNA (% of control)” value is recorded as 130 (85.7-196) % of control. Further, the inhibition at 10 µM in series [1] (Homo sapiens, HepG2, 336 h, read-out: % inhibition MtDNA) was 8.8%; in series [2] (Homo sapiens, HepG2, 336 h, read-out: % inhibition nDNA), 29.6%. The IC50 in series [1] (Homo sapiens, HepG2, 336 h) is greater than 10 µM; in series [2] (Homo sapiens, 336 h, HepG2 cells, 14-day assay), greater than 10 µM. Besides, the “Lactic acid production (% of control)” value with HepG2 cells is recorded as 94 ± 20.8 % of control. In the series with wild type HBV (setting [8]), the EC50 lay within 100 to 900 nM. Further, the 90% effect concentration (EC90) in the series on wild type HBV (setting [8]) is 1000 to 9000 nM.

For `CCOC(=O)C1=C(CN2CCOCC2)NC(c2nccs2)=NC1c1ccc(F)cc1Br` (centres unmarked) [GLS4, Morphothiadine mesilate], the “Effect on capsid formation” value on HBV Cp149 (10 μM HBV Cp149, 300 mM NaCl, FIG. 1) is on record as “misassembled hollow spheres; also recorded: capsid formation was disrupted”. Also, the “Size of the hollow spheres formed” value on HBV Cp149 (10 μM HBV Cp149, vehicle approximately 40 nm) was 80-100 nm. The “Effect on already-formed capsids” value at HBV Cp149 capsids was “misassembled hollow spheres; also recorded: the capsids were disrupted”.

On to `Nc1ccn([C@H]2CC[C@@H](CO)O2)c(=O)n1` [ddC, reference compound], for which the “MtDNA (% of control)” value in series [1] was 5.3 (5.0-5.8) % of control. In addition, the “% inhibition MtDNA” value in [1] (setting [7]) turned out to be 97.4%. The IC50 in series [1] (HepG2 cells, 14-day assay) is less than 10 µM; in series [2] (HepG2 cells, 14-day assay), less than 10 µM. In addition, the “% inhibition nDNA” value in series [2] (setting [7]) was found to be 52.4%. Further, in the series on HepG2 cells, the “Lactic acid production (% of control)” value is on record as 196 ± 73.0 % of control.

Turning to `C=CCn1cc(CNC(=O)C(=O)c2c(C)c(C(=O)Nc3ccc(F)c(F)c3)n(C)c2C)nn1` [Compound 8], the CC50 in [3] was 60.5 µM; in series [4] it was 45.4 µM; in series [5], greater than 100 µM; in series [6], 98.6 µM. Also, the EC50 in the series on wild type HBV fell in the range of 1 to 9 nM. In the series on wild type HBV, the concentration for an effect of 90% (EC90) was 10 to 90 nM.

Turning to `Cn1cc(C(=O)C(=O)Nc2nccs2)cc1C(=O)Nc1ccc(F)c(F)c1` [Compound 26, N-(3,4-difluorophenyl)-1-methyl-4-(2-oxo-2-(thiazol-2-ylamino)acetyl)-1H-pyrrole-2-carboxamide], the CC50 is greater than 100 µM in series [3] (human PBM cells), greater than 100 µM in [4] (CEM lymphoblastoid cells), 31.2 µM in series [5] and greater than 100 µM in [6]. Moreover, the concentration for a half-maximal effect (EC50) in the series with wild type HBV (setting [8]) is 100 to 900 nM. Moreover, the EC90 in the series with wild type HBV (setting [8]) is 1000 to 9000 nM.

`C#CCNC(=O)C(=O)c1c(C)c(C(=O)Nc2ccc(F)nc2)n(C)c1C` [Compound 61, N-(6-fluoropyridin-3-yl)-1,3,5-trimethyl-4-(2-oxo-2-(prop-2-yn-1-ylamino)acetyl)-1H-pyrrole-2-carboxamide]: the CC50 in series [3] (human PBM cells), in [4] (CEM lymphoblastoid cells), in series [5] and in series [6] was greater than 100 µM throughout. The 50% effective concentration (EC50) in the series on wild type HBV (setting [8]) lay in the range of 100 to 900 nM. Further, in the series with wild type HBV (setting [8]), the concentration for an effect of 90% (EC90) was 100 to 900 nM.

In the case of `CCN(CC)C(=O)C(=O)c1c(C)c(C(=O)Nc2ccc(F)c(F)c2)n(C)c1C` [Compound 45, 4-(2-(diethylamino)-2-oxoacetyl)-N-(3,4-difluorophenyl)-1,3,5-trimethyl-1H-pyrrole-2-carboxamide], the CC50 in [3] (human PBM cells) turned out to be 90 µM; in [4] (CEM lymphoblastoid cells), 36 µM; in [5], 47 µM; in series [6], 75 µM. The EC50 in the series on wild type HBV (setting [8]) lay within 100 to 900 nM. Besides, the 90% effect concentration (EC90) in the series on wild type HBV (setting [8]) lay within 1000 to 9000 nM.

With `Cn1cc(C(=O)C(=O)N2CCOCC2)cc1C(=O)Nc1ccc(F)c(F)c1` [Compound 31, N-(3,4-difluorophenyl)-1-methyl-4-(2-morpholino-2-oxoacetyl)-1H-pyrrole-2-carboxamide], the CC50 in series [3] (human PBM cells) was greater than 100 µM; in series [4] (CEM lymphoblastoid cells), greater than 100 µM; in [5], 41.9 µM; in [6] it was 93.9 µM. For the same compound, the EC50 with wild type HBV (setting [8]) is 10 to 90 nM. In addition, the 90% effect concentration (EC90) in the series with wild type HBV (setting [8]) lay within 1000 to 9000 nM.
